# Several values for one entry are separate records, joined by “and”; a condition that tells them apart may be missing. Equal entries are not always repeated. Toxic doses and inconclusive results are not listed.
# Test system: CD2F1 mice, L1210 leukemia ip, survival T/C
# Test: NCI In Vivo Anticancer Drug Screen. Data for tumor model L1210 Leukemia (intraperitoneal) in CD2F1 (CDF1) mice
# Conditions: higher = longer survival
# In short: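 Each value reflects a quotient of treated over vehicle control outcomes in mice with a transplanted tumor.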
# [1] = endpoint: mean survival time, dose: 100.0 mg/kg/injection, schedule: Q04DX003 (ip), vehicle: saline with Tween-80
# [2] = endpoint: mean survival time, dose: 200.0 mg/kg/injection, schedule: Q04DX003 (ip), vehicle: saline with Tween-80
# [3] = endpoint: mean survival time, dose: 400.0 mg/kg/injection, schedule: Q04DX003 (ip), vehicle: saline with Tween-80
# [4] = endpoint: mean survival time, dose: 100.0 mg/kg/injection, schedule: Q01DX009 (ip), vehicle: saline with Tween-80
# [5] = endpoint: mean survival time, dose: 200.0 mg/kg/injection, schedule: Q01DX009 (ip), vehicle: saline with Tween-80
# [6] = endpoint: mean survival time, dose: 400.0 mg/kg/injection, schedule: Q01DX009 (ip), vehicle: saline with Tween-80
smiles,measurement,setting,value
N=[N+]=CC(=O)CCC(NC(=O)C(CCC(=O)C=[N+]=N)NC(=O)CCC(N)C(=O)O)C(=O)O (centres undefined),T/C,"endpoint: mean survival time, dose: 0.01 mg/kg/injection, schedule: Q01DX009 (ip), vehicle: water",95 % of control
same,T/C,"endpoint: mean survival time, dose: 0.03 mg/kg/injection, schedule: Q01DX009 (ip), vehicle: water",96 % of control
same,T/C,"endpoint: mean survival time, dose: 0.05 mg/kg/injection, schedule: Q01DX009 (ip), vehicle: other",115 % of control and 112 % of control
same,T/C,"endpoint: mean survival time, dose: 0.05 mg/kg/injection, schedule: Q01DX009 (ip), vehicle: water",115 % of control
same,T/C,"endpoint: mean survival time, dose: 0.05 mg/kg/injection, schedule: Q01DX009 (oral), vehicle: water",103 % of control
same,T/C,"endpoint: mean survival time, dose: 0.05 mg/kg/injection, schedule: Q01DX009 (sc), vehicle: water",116 % of control
same,T/C,"endpoint: mean survival time, dose: 0.1 mg/kg/injection, schedule: Q01DX009 (ip), vehicle: other",152 % of control
same,T/C,"endpoint: mean survival time, dose: 0.1 mg/kg/injection, schedule: Q01DX009 (oral), vehicle: water",107 % of control
same,T/C,"endpoint: mean survival time, dose: 0.18 mg/kg/injection, schedule: Q01DX017 (ip), vehicle: saline",157 % of control
same,T/C,"endpoint: mean survival time, dose: 0.2 mg/kg/injection, schedule: Q01DX009 (oral), vehicle: water",120 % of control
same,T/C,"endpoint: mean survival time, dose: 0.2 mg/kg/injection, schedule: Q01DX009 (sc), vehicle: water",101 % of control
same,T/C,"endpoint: mean survival time, dose: 0.3 mg/kg/injection, schedule: Q01DX017 (ip), vehicle: saline",111 % of control
same,T/C,"endpoint: mean survival time, dose: 0.4 mg/kg/injection, schedule: Q01DX009 (oral), vehicle: water",90 % of control
same,T/C,"endpoint: mean survival time, dose: 0.4 mg/kg/injection, schedule: Q01DX009 (sc), vehicle: water",98 % of control
same,T/C,"endpoint: mean survival time, dose: 0.5 mg/kg/injection, schedule: Q01DX009 (ip), vehicle: other",116 % of control and 96 % of control and 97 % of control
same,T/C,"endpoint: mean survival time, dose: 0.5 mg/kg/injection, schedule: Q01DX017 (ip), vehicle: saline",112 % of control
same,T/C,"endpoint: mean survival time, dose: 1.0 mg/kg/injection, schedule: Q01DX009 (ip), vehicle: other",87 % of control
same,T/C,"endpoint: mean survival time, dose: 1.6 mg/kg/injection, schedule: Q03HX024 (ip), vehicle: water",100 % of control
same,T/C,"endpoint: mean survival time, dose: 3.1 mg/kg/injection, schedule: Q03HX008 (ip), vehicle: water",110 % of control
same,T/C,"endpoint: mean survival time, dose: 3.1 mg/kg/injection, schedule: Q03HX024 (ip), vehicle: water",87 % of control
same,T/C,"endpoint: mean survival time, dose: 6.25 mg/kg/injection, schedule: Q04DX003 (ip), vehicle: water",155 % of control
same,T/C,"endpoint: mean survival time, dose: 7.5 mg/kg/injection, schedule: Q04DX003 (ip), vehicle: other",162 % of control and 165 % of control and 168 % of control
same,T/C,"endpoint: mean survival time, dose: 12.5 mg/kg/injection, schedule: Q04DX003 (ip), vehicle: water",160 % of control
same,T/C,"endpoint: mean survival time, dose: 15.0 mg/kg/injection, schedule: Q04DX003 (ip), vehicle: other",168 % of control and 177 % of control and 191 % of control
same,T/C,"endpoint: mean survival time, dose: 25.0 mg/kg/injection, schedule: Q04DX003 (ip), vehicle: water",178 % of control
same,T/C,"endpoint: mean survival time, dose: 25.0 mg/kg/injection, schedule: Q08DX002 (ip), vehicle: water",169 % of control
same,T/C,"endpoint: mean survival time, dose: 30.0 mg/kg/injection, schedule: Q04DX003 (ip), vehicle: other",178 % of control and 190 % of control and 191 % of control
same,T/C,"endpoint: mean survival time, dose: 50.0 mg/kg/injection, schedule: Q08DX002 (ip), vehicle: water",165 % of control
same,T/C,"endpoint: mean survival time, dose: 60.0 mg/kg/injection, schedule: Q04DX003 (ip), vehicle: other",155 % of control and 196 % of control and 203 % of control
same,T/C,"endpoint: mean survival time, dose: 100.0 mg/kg/injection, schedule: Q01DX001 (oral), vehicle: water",124 % of control
same,T/C,"endpoint: mean survival time, dose: 100.0 mg/kg/injection, schedule: Q01DX001 (sc), vehicle: water",96 % of control
same,T/C,"endpoint: mean survival time, dose: 100.0 mg/kg/injection, schedule: Q04DX003 (ip), vehicle: water",109 % of control
same,T/C,"endpoint: mean survival time, dose: 100.0 mg/kg/injection, schedule: Q08DX002 (ip), vehicle: water",158 % of control
same,T/C,"endpoint: mean survival time, dose: 200.0 mg/kg/injection, schedule: Q01DX001 (ip), vehicle: water",118 % of control
same,T/C,"endpoint: mean survival time, dose: 200.0 mg/kg/injection, schedule: Q01DX001 (oral), vehicle: water",121 % of control
same,T/C,"endpoint: mean survival time, dose: 400.0 mg/kg/injection, schedule: Q01DX001 (ip), vehicle: water",92 % of control
CCSC/C(=N\Nc1ccc([N+](=O)[O-])cc1[N+](=O)[O-])c1ccccc1,T/C,[1],109 % of control
same,T/C,[2],109 % of control
same,T/C,[3],102 % of control
OC(COc1ccccc1)CN1CCCCC1 (centres undefined),T/C,[4],100 % of control
same,T/C,[1],101 % of control
same,T/C,[5],100 % of control
same,T/C,[2],98 % of control
same,T/C,[6],102 % of control
same,T/C,[3],98 % of control
NC1CCCCC1N.Nc1c(N=Nc2ccc(-c3ccc(N=Nc4cc(S(=O)(=O)[O-])c5ccccc5c4N)cc3)cc2)cc(S(=O)(=O)[O-])c2ccccc12.[OH3+].[OH3+].[Pt+4],T/C,"endpoint: median survival time, dose: 3.12 mg/kg/injection, schedule: Q04DX003 (ip), vehicle: saline with Tween-80",108 % of control
same,T/C,"endpoint: median survival time, dose: 6.25 mg/kg/injection, schedule: Q04DX003 (ip), vehicle: saline with Tween-80",100 % of control
same,T/C,"endpoint: median survival time, dose: 12.5 mg/kg/injection, schedule: Q04DX003 (ip), vehicle: saline with Tween-80",102 % of control
same,T/C,"endpoint: median survival time, dose: 25.0 mg/kg/injection, schedule: Q04DX003 (ip), vehicle: saline with Tween-80",98 % of control
same,T/C,"endpoint: median survival time, dose: 50.0 mg/kg/injection, schedule: Q04DX003 (ip), vehicle: saline with Tween-80",106 % of control
same,T/C,"endpoint: median survival time, dose: 100.0 mg/kg/injection, schedule: Q04DX003 (ip), vehicle: saline with Tween-80",97 % of control
same,T/C,"endpoint: median survival time, dose: 200.0 mg/kg/injection, schedule: Q04DX003 (ip), vehicle: saline with Tween-80",100 % of control
O=C1c2c(Cl)c(Cl)c(Cl)c(Cl)c2C(=O)N1O,T/C,[1],98 % of control
same,T/C,[5],98 % of control
same,T/C,[2],98 % of control
same,T/C,[3],101 % of control
CCOCc1cccc2ccccc12,T/C,[4],98 % of control
same,T/C,[5],102 % of control
same,T/C,[6],94 % of control
Nc1nc(=O)n(C2OC(CO)C(O)C2O)c2sccc12 (centres undefined),T/C,"endpoint: mean survival time, dose: 25.0 mg/kg/injection, schedule: Q01DX005 (ip), vehicle: water",94 % of control
same,T/C,"endpoint: mean survival time, dose: 50.0 mg/kg/injection, schedule: Q01DX005 (ip), vehicle: water",94 % of control
same,T/C,"endpoint: mean survival time, dose: 100.0 mg/kg/injection, schedule: Q01DX005 (ip), vehicle: water",89 % of control
same,T/C,"endpoint: mean survival time, dose: 200.0 mg/kg/injection, schedule: Q01DX005 (ip), vehicle: water",89 % of control
COc1ccc(O)cc1,T/C,"endpoint: median survival time, dose: 12.5 mg/kg/injection, schedule: Q01DX005 (ip), vehicle: saline with Tween-80",98 % of control
same,T/C,"endpoint: median survival time, dose: 25.0 mg/kg/injection, schedule: Q01DX005 (ip), vehicle: saline with Tween-80",98 % of control
same,T/C,"endpoint: median survival time, dose: 50.0 mg/kg/injection, schedule: Q01DX005 (ip), vehicle: saline with Tween-80",95 % of control
same,T/C,"endpoint: median survival time, dose: 100.0 mg/kg/injection, schedule: Q01DX005 (ip), vehicle: saline with Tween-80",103 % of control
same,T/C,"endpoint: median survival time, dose: 200.0 mg/kg/injection, schedule: Q01DX005 (ip), vehicle: saline with Tween-80",116 % of control
COC(=O)C(Cc1[nH]c(N=Nc2ccc(Br)cc2)nc1N=Nc1ccc(Br)cc1)NC(C)=O (centres undefined),T/C,"endpoint: mean survival time, dose: 100.0 mg/kg/injection, schedule: Q04DX002 (ip), vehicle: saline with Tween-80",93 % of control
same,T/C,"endpoint: mean survival time, dose: 200.0 mg/kg/injection, schedule: Q04DX002 (ip), vehicle: saline with Tween-80",96 % of control
same,T/C,"endpoint: mean survival time, dose: 400.0 mg/kg/injection, schedule: Q04DX002 (ip), vehicle: saline with Tween-80",96 % of control
N#Cc1cccnc1Cl,T/C,"endpoint: median survival time, dose: 50.0 mg/kg/injection, schedule: Q04DX002 (ip), vehicle: saline with Tween-80",100 % of control
same,T/C,"endpoint: median survival time, dose: 100.0 mg/kg/injection, schedule: Q04DX002 (ip), vehicle: saline with Tween-80",100 % of control
same,T/C,"endpoint: median survival time, dose: 200.0 mg/kg/injection, schedule: Q04DX002 (ip), vehicle: saline with Tween-80",111 % of control
O=C(Nc1ccc(Cl)c(Cl)c1)OCC#CCOC(=O)Nc1ccc(Cl)c(Cl)c1,T/C,"endpoint: mean survival time, dose: 100.0 mg/kg/injection, schedule: Q04DX003 (ip), vehicle: saline",95 % of control
same,T/C,"endpoint: mean survival time, dose: 200.0 mg/kg/injection, schedule: Q04DX003 (ip), vehicle: saline",95 % of control
same,T/C,"endpoint: mean survival time, dose: 400.0 mg/kg/injection, schedule: Q04DX003 (ip), vehicle: saline",91 % of control
Cc1ccc(S(=O)(=O)OC(c2ccc(Cl)cc2)C(F)(F)F)cc1 (centres undefined),T/C,"endpoint: mean survival time, dose: 100.0 mg/kg/injection, schedule: Q01DX001 (ip), vehicle: saline with Tween-80",101 % of control
same,T/C,[4],93 % of control
same,T/C,"endpoint: mean survival time, dose: 200.0 mg/kg/injection, schedule: Q01DX001 (ip), vehicle: saline with Tween-80",95 % of control
same,T/C,[5],86 % of control
same,T/C,"endpoint: mean survival time, dose: 400.0 mg/kg/injection, schedule: Q01DX001 (ip), vehicle: saline with Tween-80",101 % of control
same,T/C,[6],87 % of control
COc1ccccc1N=O,T/C,"endpoint: mean survival time, dose: 12.5 mg/kg/injection, schedule: Q01DX001 (ip), vehicle: Klucel (hydroxypropylcellulose) (HPC)",93 % of control
same,T/C,"endpoint: mean survival time, dose: 25.0 mg/kg/injection, schedule: Q01DX001 (ip), vehicle: Klucel (hydroxypropylcellulose) (HPC)",96 % of control
same,T/C,"endpoint: mean survival time, dose: 50.0 mg/kg/injection, schedule: Q01DX001 (ip), vehicle: Klucel (hydroxypropylcellulose) (HPC)",93 % of control
CCCCCCCCCC(=O)Nc1ccc(C(=O)OCC)cc1,T/C,[4],95 % of control
same,T/C,[5],97 % of control
same,T/C,[6],98 % of control

# — PubChem BioAssay AID256 (DTP/NCI, 2004)
